Laboratory results as given in PubChem BioAssay AID328 (DTP/NCI, 2004).
Where “and” joins values, the source holds several entries; their conditions need not be identical. Equal values may be shown once. Inconclusive results and toxic doses are left out.

Test system: BDF1 mice, P388 leukemia ip, median survival T/C
Test: NCI In Vivo Anticancer Drug Screen. Data for tumor model P388 Leukemia (intraperitoneal) in B6D2F1 (BDF1) mice
Details: endpoint: median survival time, higher = longer survival
How it was run: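 Survival ratio, drug arm over vehicle arm, in mice with a transplanted tumour.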

[1] = dose: 100.0 mg/kg/injection, schedule: Q04DX003 (ip), vehicle: water
[2] = dose: 200.0 mg/kg/injection, schedule: Q04DX003 (ip), vehicle: water
[3] = dose: 25.0 mg/kg/injection, schedule: Q01DX009 (ip), vehicle: saline
[4] = dose: 50.0 mg/kg/injection, schedule: Q01DX009 (ip), vehicle: saline
[5] = dose: 100.0 mg/kg/injection, schedule: Q01DX009 (ip), vehicle: saline
[6] = dose: 100.0 mg/kg/injection, schedule: Q04DX003 (ip), vehicle: saline
[7] = dose: 200.0 mg/kg/injection, schedule: Q01DX009 (ip), vehicle: saline
[8] = dose: 200.0 mg/kg/injection, schedule: Q04DX003 (ip), vehicle: saline
[9] = dose: 400.0 mg/kg/injection, schedule: Q01DX009 (ip), vehicle: saline
[10] = dose: 400.0 mg/kg/injection, schedule: Q04DX003 (ip), vehicle: saline
[11] = dose: 100.0 mg/kg/injection, schedule: Q04DX003 (ip), vehicle: saline with Tween-80

O=C(CBr)c1cccc(OC(=O)c2ccccc2)c1
T/C (dose: 25.0 mg/kg/injection, schedule: Q04DX003 (ip), vehicle: Klucel (hydroxypropylcellulose) (HPC)): 96 % of control
T/C (dose: 50.0 mg/kg/injection, schedule: Q04DX003 (ip), vehicle: Klucel (hydroxypropylcellulose) (HPC)): 88 % of control

Cc1ccc(CNCC(=O)O)cc1
T/C [1]: 99 % of control
T/C [2]: 102 % of control
T/C (dose: 400.0 mg/kg/injection, schedule: Q04DX003 (ip), vehicle: water): 90 % of control

CC(NC=O)C(=O)NC(CC(=O)O)C(=O)O (stereo not given)
T/C (dose: 50.0 mg/kg/injection, schedule: Q01DX005 (ip), vehicle: saline): 95 % of control
T/C (dose: 100.0 mg/kg/injection, schedule: Q01DX005 (ip), vehicle: saline): 93 % of control
T/C (dose: 200.0 mg/kg/injection, schedule: Q01DX005 (ip), vehicle: saline): 89 % of control

O=Cc1ccc([N+](=O)[O-])s1
T/C (dose: 3.13 mg/kg/injection, schedule: Q01DX009 (ip), vehicle: saline with Tween-80): 99 % of control
T/C (dose: 6.25 mg/kg/injection, schedule: Q01DX009 (ip), vehicle: saline with Tween-80): 99 % of control and 118 % of control
T/C (dose: 12.5 mg/kg/injection, schedule: Q01DX009 (ip), vehicle: saline with Tween-80): 115 % of control
T/C (dose: 25.0 mg/kg/injection, schedule: Q01DX009 (ip), vehicle: saline with Tween-80): 123 % of control
T/C (dose: 50.0 mg/kg/injection, schedule: Q01DX009 (ip), vehicle: saline with Tween-80): 118 % of control

COC(=O)Cc1c[nH]c(=O)[nH]c1=O
T/C (dose: 50.0 mg/kg/injection, schedule: Q01DX009 (ip), vehicle: water): 117 % of control
T/C (dose: 100.0 mg/kg/injection, schedule: Q01DX009 (ip), vehicle: water): 102 % of control
T/C [1]: 99 % of control
T/C (dose: 200.0 mg/kg/injection, schedule: Q01DX009 (ip), vehicle: water): 96 % of control
T/C [2]: 94 % of control

O=C1CC=C(Nc2ccc(Br)cc2)C(=O)O1
T/C [3]: 99 % of control
T/C [4]: 101 % of control
T/C [5]: 105 % of control
T/C [6]: 112 % of control
T/C [7]: 92 % of control
T/C [8]: 91 % of control
T/C [9]: 99 % of control
T/C [10]: 107 % of control

O=[N+]([O-])c1ccc(N2CCCCCC2)c2c1no[n+]2[O-]
T/C (dose: 15.0 mg/kg/injection, schedule: Q01DX009 (ip), vehicle: saline with Tween-80): 90 % of control
T/C (dose: 30.0 mg/kg/injection, schedule: Q01DX009 (ip), vehicle: saline with Tween-80): 95 % of control
T/C (dose: 60.0 mg/kg/injection, schedule: Q01DX009 (ip), vehicle: saline with Tween-80): 95 % of control

CCCCNC=O
T/C [3]: 91 % of control
T/C [4]: 100 % of control
T/C (dose: 100.0 mg/kg/injection, schedule: Q01DX001 (ip), vehicle: saline): 100 % of control
T/C [5]: 100 % of control and 104 % of control
T/C [6]: 95 % of control
T/C (dose: 200.0 mg/kg/injection, schedule: Q01DX001 (ip), vehicle: saline): 100 % of control
T/C [7]: 104 % of control
T/C [8]: 95 % of control
T/C (dose: 400.0 mg/kg/injection, schedule: Q01DX001 (ip), vehicle: saline): 100 % of control
T/C [9]: 104 % of control
T/C [10]: 104 % of control

O=C(Nc1ccc(C(=O)O)cc1)Oc1ccc(N(CCCl)CCCl)cc1
T/C (dose: 12.0 mg/kg/injection, schedule: Q04DX003 (ip), vehicle: saline): 163 % of control
T/C (dose: 19.0 mg/kg/injection, schedule: Q04DX003 (ip), vehicle: saline): 154 % of control
T/C (dose: 29.0 mg/kg/injection, schedule: Q04DX003 (ip), vehicle: saline with Tween-80): 200 % of control
T/C (dose: 45.0 mg/kg/injection, schedule: Q04DX003 (ip), vehicle: saline with Tween-80): 235 % of control
T/C (dose: 66.0 mg/kg/injection, schedule: Q04DX003 (ip), vehicle: saline with Tween-80): 163 % of control
T/C [11]: 245 % of control
T/C (dose: 150.0 mg/kg/injection, schedule: Q04DX003 (ip), vehicle: saline with Tween-80): 190 % of control

O=C(OC12CCCCC1CCCC2)c1ccc([N+](=O)[O-])cc1 (stereo not given)
T/C [11]: 110 % of control
T/C (dose: 200.0 mg/kg/injection, schedule: Q04DX003 (ip), vehicle: saline with Tween-80): 100 % of control
T/C (dose: 400.0 mg/kg/injection, schedule: Q04DX003 (ip), vehicle: saline with Tween-80): 100 % of control
